According to patent US8853246B2 (Dow AgroSciences LLC, priority 2009, dated 2014):

Key:
[1] = test system: Green Peach Aphid (Myzus Persicae); test: Insecticidal test for green peach aphid in foliar spray assay (col. MYZUPE); assay type: in vivo; conditions: Abbott's correction formula; for pest or weed control at 200 ppm: Myzus persicae, 72 h, read-out: MYZUPE 200 ppm (Corrected % Control, rating)
Summary of the method: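 Cabbage seedlings with 2-3 true leaves, infested with 20-50 wingless adult and nymph aphids one day earlier, sprayed to runoff at 200 ppm (acetone/methanol stock diluted in 0.025% Tween 20), four pots per treatment. After 3 days at ~25 °C, 40% RH, live aphids counted; corrected % control versus solvent-sprayed plants.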

[2] = test system: Sweetpotato Whitefly-Crawler (Bemisia Tabaci); test: Insecticidal test for sweetpotato whitefly-crawler in foliar spray assay (col. BEMITA); assay type: in vivo; conditions: Abbott's correction formula; for pest or weed control at 200 ppm: Bemisia tabaci, read-out: BEMITA 200 ppm (Corrected % Control, rating)
Summary of the method: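 Cotton plants (one 3-5 cm true leaf) infested with whitefly eggs (100-300/plant), held 5-6 days at 82° F, 50% RH until crawlers developed. Sprayed to runoff at 200 ppm (acetone stock diluted in 0.025% Tween 20), four plants per treatment. Live nymphs counted after 8-9 days; % control by Abbott's correction versus solvent check.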

SMILES	MYZUPE 200 ppm (Corrected % Control, rating) [1]	BEMITA 200 ppm (Corrected % Control, rating) [2]	pest or weed control at 200 ppm [1]	pest or weed control at 200 ppm [2]
C[S+]([O-])CCC(=O)Nc1sc(-c2cncc(F)c2)nc1Cl (centres unmarked) [Compound 451]	A (80-100)	B (Less than 80)		
CCN(C(=O)OC(C)(C)C)c1sc(-c2cccnc2)nc1Br [Compound 452]			80 to 100%	80 to 100%
CSCCC(=O)N(C)c1sc(-c2ccc(F)nc2)nc1Cl [Compound 453, N-[4-chloro-2-(6-fluoro-pyridin-3-yl)-thiazol-5-yl]-N-methyl-3-methylsulfanyl-propionamide]			80 to 100%	80 to 100%
CCN(C(=O)C(C)CSC)c1sc(-c2cncc(F)c2)nc1F (centres unmarked) [Compound 456]			80 to 100%	< 80%
CCN(C(=O)C(C)C)c1sc(-c2cccnc2)nc1Br [Compound 457]			80 to 100%	80 to 100%
CCN(C(=O)CCSC)c1sc(-c2cccnc2)nc1Br [Compound 458]			80 to 100%	80 to 100%
COCCN(C(=O)OC(C)(C)C)c1sc(-c2cccnc2)nc1C [Compound 460]			< 80%	< 80%
Cc1nc(-c2cccnc2)sc1N(CC1CC1(F)F)C(=O)OC(C)(C)C (centres unmarked) [Compound 461]			80 to 100%	< 80%
Cc1nc(-c2cccnc2)sc1N(CC1CC1)C(=O)OC(C)(C)C [Compound 462]			80 to 100%	< 80%
C/C=C/CN(C(=O)OC(C)(C)C)c1sc(-c2cccnc2)nc1C [Compound 463]			< 80%	< 80%
COC(=O)/C=C/CN(C(=O)C(C)CSC)c1sc(-c2cccnc2)nc1C (centres unmarked) [Compound 464]			80 to 100%	< 80%
COCCN(C(=O)C(C)CSC)c1sc(-c2cccnc2)nc1C (centres unmarked) [Compound 465]			80 to 100%	< 80%
C/C=C/CN(C(=O)C(C)CSC)c1sc(-c2cccnc2)nc1C (centres unmarked) [Compound 466]			80 to 100%	< 80%
CSCC(C)C(=O)N(CC1CC1(F)F)c1sc(-c2cccnc2)nc1C (centres unmarked) [Compound 467]			80 to 100%	< 80%
CSCC(C)C(=O)N(CC1CC1)c1sc(-c2cccnc2)nc1C (centres unmarked) [Compound 468]			80 to 100%	< 80%
CN(C(=O)CC[S+](C)[O-])c1sc(-c2ccc(F)nc2)nc1Cl (centres unmarked) [Compound 469]			80 to 100%	< 80%
CC/N=C(\SCC)N(C)c1sc(-c2cccnc2)nc1C [Compound 471, 2,3-diethyl-1-methyl-1-(4-methyl-2-pyridin-3-yl-thiazol-5-yl)-isothiourea]			80 to 100%	< 80%
CCCCS/C(=N\CC)N(C)c1sc(-c2cccnc2)nc1C [Compound 472]			80 to 100%	< 80%
CCN(C(=O)CC(C)SC)c1sc(-c2cccnc2)nc1Br (centres unmarked) [Compound 480]			80 to 100%	80 to 100%
CCCC(C)OC(=O)N(C)c1sc(-c2cccnc2)nc1C (centres unmarked) [Compound 482]			80 to 100%	80 to 100%
CCCCOC(=O)N(C)c1sc(-c2cccnc2)nc1C [Compound 483]			< 80%	80 to 100%
COCC(C)OC(=O)N(C)c1sc(-c2cccnc2)nc1C (centres unmarked) [Compound 484]			< 80%	80 to 100%
COCCOC(=O)N(C)c1sc(-c2cccnc2)nc1C [Compound 485]			80 to 100%	80 to 100%
Cc1nc(-c2cccnc2)sc1N(C)C(=O)OCC(F)(F)F [Compound 486]			80 to 100%	< 80%
CSC(C)(C)CC(=O)N(C)c1sc(-c2cccnc2)nc1Cl [Compound 489]			80 to 100%	80 to 100%
